We go through 64 compounds from patent US7632972B2, “Compounds and methods for treatment of cancer and modulation of programmed cell death for melanoma and other cancer cells” (The Board of Trustees of the University of Illionis, priority 2003, dated 2009).

This assay has as its system U-937 cells. Briefly: High-throughput cell death assay on library members (MTS/PMS). The format is cell-based, human. The conditions noted are these: library members at 100 μM, 24 hours. Here is the method:
A three-tiered system was devised to identify compounds that selectively induce apoptosis in cancer cells. First, all compounds were screened at 100 μM in a high-throughput manner for their ability to induce death in two cancer cell lines, HL-60 (leukemia) and U-937 (lymphoma).
Test compounds were transferred into the wells using a 96-pin transfer apparatus (V & P Scientific, San Diego Calif.) that transfers 0.2 μL of compound. The compounds were made up as 50 mM stock solutions in 100% EtOH, so one transfer gave a final concentration of 100 μM. Controls were performed in which only EtOH (containing no compound) was pin-transferred into wells containing cells. The cells were incubated with the compounds for 24 hours, and then cell death was quantitated.

The structures appear in SMILES notation.

Regarding `CO[C@H](CNC(=O)/C=C/c1ccccc1)c1ccccc1` [Compound 8-A], the “Induction of death in U-937 cells (percentages of cell death)” value (shortened to “Induction … (percentages of cell death)”) amounted to 70%.
On to `COc1ccc(CCNC(=O)/C=C/c2cc(OC)c(O)c(OC)c2)cc1` [Compound 18-G], for which the “Induction … (percentages of cell death)” value stood at 35%.
For `COc1cc(/C=C/C(=O)NC[C@H](O)c2ccc(O)cc2)cc(OC)c1OC` [Compound 15-F], the “Induction … (percentages of cell death)” value is given as 12%.
Then `COc1cccc(/C=C/C(=O)NC[C@H](O)c2ccc(O)cc2)c1` [Compound 15-H], with 24%; and `COc1ccc([C@H](O)CNC(=O)/C=C/c2ccc(O)c(OC)c2)cc1` [Compound 14-D], with 59%; and `COc1ccc(/C=C/C(=O)NC[C@@H](OC)c2ccccc2)cc1O` [Compound 8-E], with 56%.
In the case of `COc1cccc(/C=C/C(=O)NC[C@@H](O)c2ccc(O)cc2)c1` [Compound 13-H], the “Induction … (percentages of cell death)” value worked out at 43%.
In the case of `COc1cccc(/C=C/C(=O)NC[C@@H](OC)c2ccc(O)cc2)c1` [Compound 9-H] it was 38%; in that of `COc1ccc(/C=C/C(=O)NC[C@@H](O)c2ccccc2)cc1O` [Compound 12-E], 28%; in that of `COc1ccc(CCNC(=O)/C=C/c2cc(OC)c(OC)c(OC)c2)cc1` [Compound 18-F], 40%.
Consider `COc1cc(/C=C/C(=O)NC[C@@H](OC)c2ccc(O)cc2)cc(OC)c1OC` [Compound 9-F], for which the “Induction … (percentages of cell death)” value worked out at 13%.
With `O=C(/C=C/c1ccc(O)c(O)c1)NCCc1ccc(O)cc1` [Compound 17-C], the “Induction … (percentages of cell death)” value is 15%.
As to `CO[C@H](CNC(=O)/C=C/c1ccccc1)c1ccc(O)cc1` [Compound 9-A], the “Induction … (percentages of cell death)” value is recorded as 24%.
Turning to `COc1ccc(/C=C/C(=O)NC[C@@H](O)c2ccc(O)cc2)cc1O` [Compound 13-E], the “Induction … (percentages of cell death)” value is reported as 43%.
Then `COc1ccc(CCNC(=O)/C=C/c2ccc(OC)c(O)c2)cc1` [Compound 18-E], with 73%; and `COc1cc(/C=C/C(=O)NCCc2ccccc2)ccc1O` [Compound 16-D], with 39%.
With `COc1ccc(/C=C/C(=O)NC[C@@H](OC)c2ccc(O)cc2)cc1O` [Compound 9-E], the “Induction … (percentages of cell death)” value turned out to be 41%.
Then `CO[C@@H](CNC(=O)/C=C/c1ccccc1)c1ccc(O)cc1` [Compound 11-A], with 26%.
Then `CO[C@H](CNC(=O)/C=C/c1ccc(O)c(O)c1)c1ccccc1` [Compound 8-C], with −5%.
Then `COc1ccc([C@H](O)CNC(=O)/C=C/c2ccccc2)cc1` [Compound 14-A], with 28%; and `O=C(/C=C/c1ccc(O)c(O)c1)NC[C@@H](O)c1ccccc1` [Compound 12-C], with 27%.
`COc1cc(/C=C/C(=O)NC[C@@H](OC)c2ccccc2)cc(OC)c1OC` [Compound 8-F]: the “Induction … (percentages of cell death)” value came to 31%.
Take `O=C(/C=C/c1ccc(O)cc1)NCCc1ccc(O)cc1` [Compound 17-B]: the “Induction … (percentages of cell death)” value came to 32%.
As to `COc1ccc([C@@H](CNC(=O)/C=C/c2ccc(O)cc2)OC)cc1` [Compound 10-B], the “Induction … (percentages of cell death)” value was found to be 60%.
For the compound `O=C(/C=C/c1ccc(O)c(O)c1)NC[C@@H](O)c1ccc(O)cc1` [Compound 13-C], the “Induction … (percentages of cell death)” value is −36%.
Consider `COc1cc(/C=C/C(=O)NC[C@@H](O)c2ccc(O)cc2)cc(OC)c1OC` [Compound 13-F], for which the “Induction … (percentages of cell death)” value was found to be 22%.
In the case of `O=C(/C=C/c1ccccc1)NC[C@@H](O)c1ccc(O)cc1` [Compound 13-A] it was 43%; in that of `COc1cc(/C=C/C(=O)NC[C@@H](OC)c2ccccc2)cc(OC)c1O` [Compound 8-G], −3%.
Take `COc1ccc([C@@H](CNC(=O)/C=C/c2cc(OC)c(OC)c(OC)c2)OC)cc1` [Compound 10-F]: the “Induction … (percentages of cell death)” value turned out to be 45%.
In the case of `COc1ccc(/C=C/C(=O)NCCc2ccc(O)cc2)cc1O` [Compound 17-E] it was 18%.
In the case of `COc1ccc([C@H](O)CNC(=O)/C=C/c2cc(OC)c(OC)c(OC)c2)cc1` [Compound 14-F] it was 26%; in that of `COc1cc(/C=C/C(=O)NC[C@H](O)c2ccc(O)cc2)cc(OC)c1O` [Compound 15-G], 47%.
Regarding `O=C(/C=C/c1ccc(O)cc1)NC[C@H](O)c1ccc(O)cc1` [Compound 15-B], the “Induction … (percentages of cell death)” value was found to be 39%.
Then `CO[C@H](CNC(=O)/C=C/c1ccc(O)cc1)c1ccccc1` [Compound 8-B], with 34%; and `O=C(/C=C/c1ccc(O)cc1)NC[C@@H](O)c1ccc(O)cc1` [Compound 13-B], with 49%; and `O=C(/C=C/c1ccccc1)NC[C@@H](O)c1ccccc1` [Compound 12-A], with 26%.
Then `CO[C@@H](CNC(=O)/C=C/c1ccc(O)c(O)c1)c1ccc(O)cc1` [Compound 11-C], with −9%; and `COc1cc(/C=C/C(=O)NCCc2ccc(O)cc2)ccc1O` [Compound 17-D], with 58%; and `COc1cc(/C=C/C(=O)NC[C@H](OC)c2ccc(O)cc2)cc(OC)c1O` [Compound 11-G], with −11%.
In the case of `COc1ccc(CCNC(=O)/C=C/c2cccc(OC)c2)cc1` [Compound 18-H] it was 56%; in that of `O=C(/C=C/c1ccc(O)cc1)NCCc1ccccc1` [Compound 16-B], 66%.
As for `COc1cc(/C=C/C(=O)NCCc2ccc(O)cc2)cc(OC)c1OC` [Compound 17-F], the “Induction … (percentages of cell death)” value is given as 9%.
`COc1ccc([C@@H](CNC(=O)/C=C/c2cccc(OC)c2)OC)cc1` [Compound 10-H]: the “Induction … (percentages of cell death)” value is on record as 72%.
Turning to `CO[C@H](CNC(=O)/C=C/c1ccc(O)cc1)c1ccc(O)cc1` [Compound 9-B], the “Induction … (percentages of cell death)” value is given as 20%.
As for `O=C(/C=C/c1ccc(O)c(O)c1)NCCc1ccccc1` [Compound 16-C], the “Induction … (percentages of cell death)” value is given as 24%.
In the case of `COc1cc(/C=C/C(=O)NC[C@@H](O)c2ccc(O)cc2)cc(OC)c1O` [Compound 13-G] it was 16%; in that of `COc1cccc(/C=C/C(=O)NC[C@@H](O)c2ccccc2)c1` [Compound 12-H], 51%.
In the case of `COc1ccc([C@@H](CNC(=O)/C=C/c2ccc(O)c(O)c2)OC)cc1` [Compound 10-C] it was −8%.
`O=C(/C=C/c1ccccc1)NCCc1ccc(O)cc1` [Compound 17-A]: the “Induction … (percentages of cell death)” value is on record as 48%.
In the case of `CO[C@@H](CNC(=O)/C=C/c1ccc(O)cc1)c1ccc(O)cc1` [Compound 11-B] it was 60%; in that of `COc1ccc([C@H](O)CNC(=O)/C=C/c2ccc(O)cc2)cc1` [Compound 14-B], 27%.
Consider `COc1cc(/C=C/C(=O)NC[C@@H](OC)c2ccccc2)ccc1O` [Compound 8-D], for which the “Induction … (percentages of cell death)” value is reported as 20%.
With `COc1cc(/C=C/C(=O)NC[C@H](OC)c2ccc(O)cc2)cc(OC)c1OC` [Compound 11-F], the “Induction … (percentages of cell death)” value worked out at 27%.
Take `COc1ccc(/C=C/C(=O)NC[C@H](OC)c2ccc(O)cc2)cc1O` [Compound 11-E]: the “Induction … (percentages of cell death)” value was determined as 41%.
Then `COc1ccc(/C=C/C(=O)NCCc2ccccc2)cc1O` [Compound 16-E], with 60%; and `COc1ccc(CCNC(=O)/C=C/c2ccc(O)cc2)cc1` [Compound 18-B], with 17%.
In the case of `COc1ccc(CCNC(=O)/C=C/c2ccc(O)c(OC)c2)cc1` [Compound 18-D] it was 66%; in that of `COc1ccc([C@@H](CNC(=O)/C=C/c2ccc(O)c(OC)c2)OC)cc1` [Compound 10-D], 31%.
In the case of `COc1cc(/C=C/C(=O)NCCc2ccccc2)cc(OC)c1OC` [Compound 16-F] it was 30%.
In the case of `COc1ccc(CCNC(=O)/C=C/c2ccc(O)c(O)c2)cc1` [Compound 18-C], the “Induction … (percentages of cell death)” value came out at 26%.
As for `COc1cccc(/C=C/C(=O)NC[C@@H](OC)c2ccccc2)c1` [Compound 8-H], the “Induction … (percentages of cell death)” value was found to be 60%.
In the case of `COc1cc(/C=C/C(=O)NC[C@@H](OC)c2ccc(O)cc2)cc(OC)c1O` [Compound 9-G], the “Induction … (percentages of cell death)” value was −7%.
Then `COc1ccc([C@H](O)CNC(=O)/C=C/c2cc(OC)c(O)c(OC)c2)cc1` [Compound 14-G], with 48%; and `O=C(/C=C/c1ccccc1)NC[C@H](O)c1ccc(O)cc1` [Compound 15-A], with 27%.
